Source: patent US8828988B2 (Tetraphase Pharmaceuticals, Inc., priority 2009, dated 2014)
≈ marks a conversion by molar mass, not a printed value. Where two headings read alike, the source gives them in different places. One block for each molecule: values may come before it.

Assays:
[1] = system: E. coli DH10B(pBAD-tetK), expressing tet(K); test: MIC against recombinant E. coli expressing tet(K); format: cell-based; conditions: for MIC: Escherichia coli; for MIC ratio, TetK induced to uninduced: ratio of TetK induced to uninduced MIC
From the text: (§1) Constructs were transformed into E. coli DH10B for expression. Recombinant strains were pre-induced under optimized conditions with L-arabinose prior to use as inocula in CLSI standardized MIC assays.

[2] = system: E. coli DH10B(pBAD-tetM), expressing tet(M); test: MIC against recombinant E. coli expressing tet(M); format: cell-based; conditions: for MIC: Escherichia coli; for Ratio (TetM induced / Uninduced): ratio of MICs
From the text: as §1

[3] = system: E. coli S30 extract system, coupled in vitro transcription/translation, firefly luciferase readout; test: In vitro transcription/translation (TnT) assay; format: biochemical; conditions: for IC50, in vitro transcription/translation system: E. coli S30 extract, luciferase readout
[4] = system: E. faecalis clinical isolates; test: MIC50, MIC90 and MIC range, panel of clinical isolates (Example 20); format: cell-based; conditions: 24 isolates, in µg/mL
Procedure: (§2) The assays were run as follows.
(§3) Both values, as well as the MIC range (the lowest and highest MIC value observed for a collection of organisms), were determined for the isolates listed in Table 3.

[5] = system: S. aureus clinical isolates; test: as above; format: cell-based; conditions: MRSA, 30 isolates; in µg/mL
Procedure: as §2, §3

[6] = system: S. pneumoniae clinical isolates; test: as above; format: cell-based; conditions: 19 isolates, in µg/mL
Procedure: as §2, §3

[7] = system: Staphylococcus aureus SA101, ATCC 29213, MSSA; test: MIC assay, SA101; format: cell-based; conditions: Table 8, read-out: MIC S. aureus ATCC 29213
[8] = system: Staphylococcus aureus SA161, HA-MRSA, tetracycline-resistant, tet(M); test: MIC assay, SA161; format: cell-based; conditions: Table 8, read-out: MIC S. aureus MRSA, tetM
[9] = system: Staphylococcus aureus SA158, tetracycline-resistant tet(K); test: MIC assay, SA158; format: cell-based; conditions: Table 8, read-out: MIC S. aureus tetK
[10] = system: Enterococcus faecalis EF103, ATCC 29212; test: MIC assay, EF103; format: cell-based; conditions: Enterococcus faecalis, ATCC29212; Table 8; read-out: MIC E. faecalis ATCC 29212
[11] = system: Enterococcus faecalis EF159, tetracycline-resistant, tet(M); test: MIC assay, EF159; format: cell-based; conditions: Table 8, read-out: MIC E. faecalis tetM
[12] = system: Streptococcus pneumoniae SP106, ATCC 49619; test: MIC assay, SP106; format: cell-based; conditions: ATCC49619, Table 8, read-out: MIC S. pneumoniae ATCC 49619
[13] = system: Streptococcus pneumoniae SP160, tetracycline-resistant, tet(M); test: MIC assay, SP160; format: cell-based; conditions: Table 8, read-out: MIC S. pneumoniae tetM
[14] = system: Escherichia coli EC107, ATCC 25922; test: MIC assay, EC107; format: cell-based; conditions: ATCC25922, Table 8, read-out: MIC E. coli ATCC 25922
[15] = system: Escherichia coli EC155, tetracycline-resistant, tet(A); test: MIC assay, EC155; format: cell-based; conditions: Table 8, read-out: MIC E. coli tetA

Compound: CO/N=C(\C(=O)N[C@@H]1C(=O)N2C(C(=O)O)=C(CSc3nc(=O)c(=O)[nH]n3C)CS[C@H]12)c1csc(N)n1 [Ceftriaxone, ceftriaxone, reference compound]
MIC ([1]; read-out: MIC, TetK Induced): 0.25 µg/mL
MIC ([1]; read-out: MIC, Uninduced): 0.125 µg/mL
MIC ratio, TetK induced to uninduced [1]: 2
Effect of expression of (tet)K on activity ([1]; result in words): unaffected
MIC ([2]; read-out: MIC, TetM induced): 0.125 µg/mL
MIC ([2]; read-out: MIC, Uninduced): 0.0625 µg/mL
Ratio (TetM induced / Uninduced) [2]: 2
Effect of expression of (tet)M on activity ([2]; result in words): unaffected

Compound: CCCNc1nc(F)c2c(c1O)C(=O)C1=C(O)[C@]3(O)C(=O)C(C(N)=O)=C(O)[C@@H](N(C)C)[C@@H]3C[C@@H]1C2 [Compound 114]
TnT IC50 [3]: 2.8 µg/mL

Compound: CCCc1nc(N(C)C)c2c(c1O)C(=O)C1=C(O)[C@]3(O)C(=O)C(C(N)=O)=C(O)[C@@H](N(C)C)[C@@H]3C[C@@H]1C2 [Compound 141]
MIC Range [4]: 1-8
MIC Range [5]: 2-4
MIC Range [6]: 0.25-8
MIC ([1]; read-out: MIC, TetK Induced): 32 µg/mL
MIC ([1]; read-out: MIC, Uninduced): > 32 µg/mL
MIC ([2]; read-out: MIC, TetM induced): 32 µg/mL
MIC ([2]; read-out: MIC, Uninduced): 32 µg/mL
Ratio (TetM induced / Uninduced) [2]: 1

Compound: CN(C)[C@@H]1C(O)=C(C(N)=O)C(=O)[C@@]2(O)C(O)=C3C(=O)c4c(O)c(NCC(F)(F)F)nc(Cl)c4C[C@H]3C[C@@H]12 [Compound 124]
MIC Range [4]: 0.008-4
MIC Range [5]: 0.25-4
MIC Range [6]: <=0.016-8
MIC ([1]; read-out: MIC, TetK Induced): 16 µg/mL
MIC ([1]; read-out: MIC, Uninduced): 8 µg/mL
MIC ratio, TetK induced to uninduced [1]: 2
MIC ([2]; read-out: MIC, TetM induced): 16 µg/mL
MIC ([2]; read-out: MIC, Uninduced): 4 µg/mL
Ratio (TetM induced / Uninduced) [2]: 4
TnT IC50 [3]: >4.5 µg/mL

MIC [7]: 0.031 µg/mL (≈ 0.0715 µM)
MIC [8]: 8 µg/mL (≈ 18.5 µM)
MIC [9]: 8 µg/mL (≈ 18.5 µM)
MIC [10]: 4 µg/mL (≈ 9.23 µM)
MIC [11]: 32 µg/mL (≈ 73.8 µM)
MIC [12]: 0.016 µg/mL (≈ 0.0369 µM)
MIC [13]: 8 µg/mL (≈ 18.5 µM)
MIC [14]: 0.25 µg/mL (≈ 0.577 µM)
MIC [15]: > 32 µg/mL
Compound: CN(C)[C@@H]1C(O)=C(C(N)=O)C(=O)[C@@]2(O)C(O)=C3C(=O)c4c(O)cnc(F)c4C[C@H]3C[C@@H]12 [Compound 144]

Compound: CN(C)[C@@H]1C(O)=C(C(N)=O)C(=O)[C@@]2(O)C(O)=C3C(=O)c4c(O)c(N)nc(F)c4C[C@H]3C[C@@H]12 [Compound 125]
TnT IC50 [3]: 0.93 µg/mL
IC50, in vitro transcription/translation system [3]: sub-μg/ml

Compound: CN(C)CCCNc1nc(Cl)c2c(c1O)C(=O)C1=C(O)[C@]3(O)C(=O)C(C(N)=O)=C(O)[C@@H](N(C)C)[C@@H]3C[C@@H]1C2 [Compound 119]
TnT IC50 [3]: 0.58 µg/mL
IC50, in vitro transcription/translation system [3]: sub-μg/ml

Compound: CN(C)[C@@H]1C(O)=C(C(N)=O)C(=O)[C@@]2(O)C(O)=C3C(=O)c4c(O)c(N)nc(Cl)c4C[C@H]3C[C@@H]12 [Compound 147]
TnT IC50 [3]: 1.1 µg/mL
